Experimental data as given in PMC3519477, “Structures of the Human Poly (ADP-Ribose) Glycohydrolase Catalytic Domain Confirm Catalytic Mechanism and Explain Inhibition by ADP-HPD Derivatives” (PLoS ONE, 2012).
Read-outs that look alike come from different tables or passages of the source. Each block holds one compound with its values, some of them ahead of it.

Key:
TcPARG Glu115Ala mutant = test system: TcPARG Glu115Ala mutant; design: method as in supplemental 4 (Slade et al., 2011); conditions: ref supplemental 4 (Slade et al., 2011); cited from earlier work
TcPARG Glu114Ala mutant = test system: TcPARG Glu114Ala mutant; design: method as in supplemental 4 (Slade et al., 2011); conditions: ref supplemental 4 (Slade et al., 2011); cited from earlier work
hPARG4 = target: T1, hPARG4 (Homo sapiens, UniProt Q86W56); test: SPR competition experiments against saturating ADP-HPD; type: binding
T1 construct: a codon optimized gene encoding human PARG(448–976) was synthesized by GeneArt; 6His (TEV-cleavable) (N, cleaved yes); made in house; host or cells: E. coli BL21 (DE3) GOLD
Text: The ADPR and ADP-HPD complex structures superpose almost exactly (r.m.s. deviation 0.14 Å over all Cα; 0.47 Å over all atoms within the binding pocket (MOE, Chemical Computing Group)). ADPR and ADP-HPD engage in equivalent interactions, with the exception of loss of an H-bond between the 1″-OH and Glu756 as this OH is not present in ADP-HPD. […] We speculate that the bound conformation of ADP-HPD is stabilised relative to ADPR by dipole-dipole interactions between the HPD NH2 ^+ and a negatively charged α-phosphate oxygen and/or the oxygen linking the β-phosphate to ribose” (4.1 Å and 2.9 Å separation respectively, Figure 4b). In addition, the α-phosphate oxygen H-bonding network may be strengthened in the ADP-HPD complex by the charged interaction with the pyrrolidine NH2 ^+. This oxygen accepts H-bonds from the backbone NH of Gln754 and a conserved water molecule, and is shielded from solvent by Val753. Binding of ADP-HPD is primarily enthalpy driven (Table 1).
Studies of PARG inhibitor binding were conducted at 25°C. Samples were prepared as 5 fold dilutions in the experimental running buffer (20 mM HEPES pH 7, 150 mM NaCl, 2 mM DTT, 0.005% P20, 0.02% NaN3 with 5% DMSO). Surface regeneration was achieved using dissociation for a time period allowing the response to return to baseline. Control injections of a fixed, saturating ADP-HPD concentration of 20 µM were interspersed with injections of compound to allow monitoring of the functionality of the protein surface. To calculate affinities, SPR equilibrium binding data, consisting of Req values from 8–10 point concentration series, were analyzed by fitting a simple 1∶1 binding model to yield Rmax and Kd values using non-linear regression analysis in Grafit 6 (Erithacus Software).

bPARG = target: bPARG; design: method as in PMID 7830282; conditions: read-out: KD, reported value for bPARG; cited from earlier work
[1] = target: T2, hPARG (full-length recombinant hPARG(1–976)-6His) (Homo sapiens, UniProt Q86W56); test: PARG activity HTRF assay (PAR-PARP1 hydrolysis); type: biochemical
T2 construct: direct expression of hPARG(1–976) with a C-terminal hexahistidine tag; made in house; host or cells: E. coli BL21 (DE3) GOLD
Method: PARG activity was assessed using an HTRF assay which will be described in detail elsewhere (Bennett et al, manuscript in preparation). […] Following this incubation, biotinylated NAD^+ at a molar ratio to PARylated PARP1 of 0.7∶1 was added and incubation continued for 5 minutes. The reaction was terminated by addition of a PARP1-specific inhibitor to a final concentration of 4.7 µM. The solution was dialysed overnight to remove excess biotinylated NAD^+ and compound, and stored at −80°C. PARG activity was measured in a 384-well format HTRF assay using the biotin-labelled PARylated PARP1 as a substrate. Residual biotinylated PARylated PARP1 was detected by addition of a detection mix containing anti-6His–XL antibody (Cisbio) and streptavidin europium cryptate (Cisbio), and then monitoring the ratio of emission at 665 nm to 612 nm upon excitation at 340 nm.
Inhibition by ADP-HPD was measured using serial dilutions over the range 100 µM to 100 pM compound from a 1 mM stock in water. Assays contained 30 pM purified recombinant PARG and 9.67 nM PAR-PARP1 in a final volume of 9 µL assay buffer (50 mM MOPS pH 7.4, 0.1 mg/mL BSA, 3 mM EDTA, 0.4 mM EGTA, 1 mM DTT, 0.01% v/v Tween20, 50 mM KCl). Reactions were allowed to proceed for 8 minutes prior to the addition of 3 µL detection reagents (50 mM MOPS pH 7.4, 0.1 mg/mL BSA, 0.1 M Potassium Fluoride, 14 nM anti-6HIS-XL antibody, 0.75 nM Streptavidin Europium Cryptate). IC50s were calculated using a time-point of 1.5 hours from the addition of detection reagents.
Here, 17.5 nL of ADP-HPD ([…]) or OA-ADP-HPD (21.43 mM in DMSO) were dispensed by an ECHO555 (Labcyte Inc.) into Greiner white 1536-well plates over the specified range: ADP-HPD (100 µM to 100 pM) and OA-ADP-HPD (500 µM to 30 nM).
ADP-HPD and OA-ADP-HPD inhibition data were visualised in Prism (GraphPad), and IC50s derived from a non-linear regression analysis of the values from three separate experiments (run in triplicate) fit to a sigmoidal dose-response curve.

hPARG4 (hPARG(448–976)) = target: T3, hPARG4 (hPARG(448–976)) (Homo sapiens, UniProt Q86W56); test: Isothermal titration calorimetry; type: binding; conditions: 25°C
T3 construct: a codon optimized gene encoding human PARG(448–976) was synthesized by GeneArt; 6His (TEV-cleavable) (N, cleaved yes); made in house; host or cells: E. coli BL21 (DE3) GOLD
Method: This was carried out using an iTC200 instrument (Microcal, GE Healthcare, Northampton, MA) at 25°C in the following buffer: 20 mM HEPES pH 7, 150 mM NaCl, 2 mM DTT, 0.02% NaN3. Protein concentrations were typically 30 µM in the cell with ligand concentrations of at least 10 fold this concentration in the syringe. Typical injection protocols of 19×2 µL injections, spaced at 2 or 3 minute intervals were used. Curves were fitted by non-linear regression analysis using a one-site binding model provided by MicroCal Origin software (version 7).

[2] = Cell activity of PARG inhibitor (data not shown); type: cell-based

T3 sequence (Q86W56 448-976): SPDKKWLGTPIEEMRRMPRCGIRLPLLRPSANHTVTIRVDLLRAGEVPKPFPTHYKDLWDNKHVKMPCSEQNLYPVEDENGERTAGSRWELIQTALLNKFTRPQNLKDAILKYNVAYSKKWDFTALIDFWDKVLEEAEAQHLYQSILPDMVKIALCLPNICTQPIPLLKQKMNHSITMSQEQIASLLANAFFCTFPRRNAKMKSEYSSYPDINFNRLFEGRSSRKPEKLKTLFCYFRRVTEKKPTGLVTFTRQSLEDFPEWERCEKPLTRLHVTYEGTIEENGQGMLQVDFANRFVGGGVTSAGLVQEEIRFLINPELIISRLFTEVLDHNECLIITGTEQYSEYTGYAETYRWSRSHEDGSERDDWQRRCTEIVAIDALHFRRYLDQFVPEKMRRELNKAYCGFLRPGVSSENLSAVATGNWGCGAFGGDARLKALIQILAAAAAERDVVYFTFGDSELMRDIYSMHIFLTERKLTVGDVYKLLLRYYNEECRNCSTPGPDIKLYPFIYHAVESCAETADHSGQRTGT
T1 sequence (Q86W56 448-976): as above
T2 sequence (Q86W56 whole entry): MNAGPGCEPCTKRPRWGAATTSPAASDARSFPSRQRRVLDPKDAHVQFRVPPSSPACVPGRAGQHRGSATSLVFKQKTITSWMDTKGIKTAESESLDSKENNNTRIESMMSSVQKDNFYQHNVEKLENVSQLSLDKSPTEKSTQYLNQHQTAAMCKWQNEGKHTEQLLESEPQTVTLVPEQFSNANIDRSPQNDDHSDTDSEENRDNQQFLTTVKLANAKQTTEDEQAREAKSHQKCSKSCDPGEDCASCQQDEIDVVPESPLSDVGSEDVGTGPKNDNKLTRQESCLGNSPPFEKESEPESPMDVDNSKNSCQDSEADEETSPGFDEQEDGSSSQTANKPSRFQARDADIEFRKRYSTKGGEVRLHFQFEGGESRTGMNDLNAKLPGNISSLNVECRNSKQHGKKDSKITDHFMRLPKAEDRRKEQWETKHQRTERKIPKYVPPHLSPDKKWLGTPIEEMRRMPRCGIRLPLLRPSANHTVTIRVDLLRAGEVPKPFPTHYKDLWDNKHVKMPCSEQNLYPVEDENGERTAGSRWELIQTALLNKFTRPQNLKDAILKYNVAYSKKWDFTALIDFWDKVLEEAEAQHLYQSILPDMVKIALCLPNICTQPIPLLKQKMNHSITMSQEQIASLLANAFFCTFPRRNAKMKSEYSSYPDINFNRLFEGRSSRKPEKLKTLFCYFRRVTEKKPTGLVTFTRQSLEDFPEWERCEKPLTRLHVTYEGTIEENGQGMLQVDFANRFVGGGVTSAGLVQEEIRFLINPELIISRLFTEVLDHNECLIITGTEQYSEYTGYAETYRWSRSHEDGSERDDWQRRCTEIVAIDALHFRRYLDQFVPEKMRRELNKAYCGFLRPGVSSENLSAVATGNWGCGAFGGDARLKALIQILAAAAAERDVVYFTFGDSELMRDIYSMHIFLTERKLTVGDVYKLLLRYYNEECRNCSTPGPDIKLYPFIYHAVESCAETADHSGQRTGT

Compound: Nc1ncnc2c1ncn2C1OC(COP(=O)(O)OP(=O)(O)OCC2OC(O)C(O)C2O)C(O)C1O (centres unmarked) [ADPR, ADP-ribose]
effect of mutation on affinity (TcPARG Glu115Ala mutant): No detectable activity; no effect on ADPR affinity
decrease in affinity versus wild-type (TcPARG Glu114Ala mutant): No detectable activity; 10-fold decrease in ADPR affinity
weaker affinity relative to ADP-HPD (hPARG4; binding to hPARG, compared with ADP-HPD): ~1000 fold
Kd (hPARG4; hPARG4-ADP-HPD complex formed in situ, increasing concentrations of compound, data not shown, read-out: KD (SPR competition)): ~40 µM
Kd (bPARG): 120 µM

drop-off in affinity upon removal of the β-phosphate-ribose moiety (hPARG4; AMP compared with ADPR): 10 fold
Kd (hPARG4; same competition-based method as for ADPR, n = 1, read-out: approximate KD (SPR competition)): ~380 µM
Compound: Nc1ncnc2c1ncn2[C@@H]1O[C@H](COP(=O)(O)O)[C@@H](O)[C@H]1O [AMP]

completeness of inhibition of hPARG activity in vitro ([1]; compared with ADP-HPD, used as maximally-inhibited control in HTS assay): more complete inhibitor
IC50 ([1]; hPARG, HTS campaign format, 3 µL reaction, 1536-well, 10 min, read-out: IC50): 16.3 ± 1.1 µM
Kd (hPARG4 (hPARG(448–976)); read-out: KD (ITC)): 0.8 ± 0.1 µM
ΔG (hPARG4 (hPARG(448–976)); ITC): -8.34 ± 0.072 kcal/mol
ΔH (hPARG4 (hPARG(448–976)); ITC): -12.1 ± 0.335 kcal/mol
ΔS (hPARG4 (hPARG(448–976)); ITC): −52.9±4.7 J/mol/K
Compound: CCCCCCCCNc1nc2c(N)ncnc2n1[C@@H]1O[C@H](COP(=O)(O)OP(=O)(O)OC[C@H]2NC[C@H](O)[C@@H]2O)[C@@H](O)[C@H]1O [OA-ADP-HPD, 8-n-octyl-amino-ADP-HPD]
cell activity [2]: unable to show cell activity
